Test results reported in ChEMBL document CHEMBL1821723 (J Med Chem, 2011).

test: in vitro; conditions: human, liver microsomes
Description: Metabolic stability in human liver microsome assessed as compound remaining after 30 mins

Row | Compound | remaining at 0.5 h [%]
1 | CC(Oc1cc(-c2cnn(C(C)C)c2)cnc1N)c1c(Cl)ccc(F)c1Cl (racemic) | 3.2
2 | CC(Oc1cc(-c2cnn(C)c2)cnc1N)c1c(Cl)ccc(F)c1Cl (racemic) | 5.2
3 | CC(Oc1cc(-c2cnn(C(C)(C)C(=O)NCCN(C)C)c2)cnc1N)c1c(Cl)ccc(F)c1Cl (racemic) | 3.6
4 | CC(Oc1cc(-c2cnn(CC(=O)NCCCN(C)C)c2)cnc1N)c1c(Cl)ccc(F)c1Cl (racemic) | 23.8
5 | CC(Oc1cc(-c2cnn(CC3(O)CCOCC3)c2)cnc1N)c1c(Cl)ccc(F)c1Cl (racemic) | 0.9
6 | CC(Oc1cc(-c2cnn(CC3CNC3)c2)cnc1N)c1c(Cl)ccc(F)c1Cl (racemic) | 71
7 | CC(Oc1cc(-c2cnn(CC3CN(CC(N)=O)C3)c2)cnc1N)c1c(Cl)ccc(F)c1Cl (racemic) | 47.8
8 | CC(Oc1cc(-c2cnn(C3CNC3)c2)cnc1N)c1c(Cl)ccc(F)c1Cl (racemic) | 44
9 | CC(Oc1cc(-c2cnn(C3CCCNC3)c2)cnc1N)c1c(Cl)ccc(F)c1Cl (racemic) | 44.3
